Results as given in ChEMBL document CHEMBL1641425, “Discovery of 1-(3,4-dichlorophenyl)-N,N-dimethyl-1,2,3,4-tetrahydroquinolin-4-amine, a dual serotonin and dopamine reuptake inhibitor” (Bioorg Med Chem Lett, 2011).

Experiments:
[1] = molecular target: Sodium-dependent noradrenaline transporter (Homo sapiens, UniProt P23975); experiment: Inhibition of human recombinant norepinephrine transporter
[2] = molecular target: Sodium-dependent dopamine transporter (Homo sapiens, UniProt Q01959); experiment: Inhibition of human recombinant dopamine transporter
Cytochrome P450 2C19 = Cytochrome P450 2C19 (Homo sapiens, UniProt P33261); experiment: Inhibition of CYP2C19; assay type: ADME
[3] = Half life in mouse microsomes; assay type: ADME, Microsome
[4] = molecular target: Sodium-dependent serotonin transporter (Homo sapiens, UniProt P31645); experiment: Inhibition of human recombinant 5HT transporter
[5] = Half life in human microsomes; assay type: ADME, Microsome
Cytochrome P450 2C9 = Cytochrome P450 2C9 (Homo sapiens, UniProt P11712); experiment: Inhibition of CYP2C9; assay type: ADME
Cytochrome P450 3A4 = Cytochrome P450 3A4 (Homo sapiens, UniProt P08684); experiment: Inhibition of CYP3A4; assay type: ADME
Cytochrome P450 2D6 = Cytochrome P450 2D6 (Homo sapiens, UniProt P10635); experiment: Inhibition of CYP2D6; assay type: ADME
[6] = Inhibition of CYP1A; assay type: ADME
[7] = molecular target: Voltage-gated inwardly rectifying potassium channel KCNH2 (Homo sapiens, UniProt Q12809)
Sequence of Voltage-gated inwardly rectifying potassium channel KCNH2 (Q12809 whole entry): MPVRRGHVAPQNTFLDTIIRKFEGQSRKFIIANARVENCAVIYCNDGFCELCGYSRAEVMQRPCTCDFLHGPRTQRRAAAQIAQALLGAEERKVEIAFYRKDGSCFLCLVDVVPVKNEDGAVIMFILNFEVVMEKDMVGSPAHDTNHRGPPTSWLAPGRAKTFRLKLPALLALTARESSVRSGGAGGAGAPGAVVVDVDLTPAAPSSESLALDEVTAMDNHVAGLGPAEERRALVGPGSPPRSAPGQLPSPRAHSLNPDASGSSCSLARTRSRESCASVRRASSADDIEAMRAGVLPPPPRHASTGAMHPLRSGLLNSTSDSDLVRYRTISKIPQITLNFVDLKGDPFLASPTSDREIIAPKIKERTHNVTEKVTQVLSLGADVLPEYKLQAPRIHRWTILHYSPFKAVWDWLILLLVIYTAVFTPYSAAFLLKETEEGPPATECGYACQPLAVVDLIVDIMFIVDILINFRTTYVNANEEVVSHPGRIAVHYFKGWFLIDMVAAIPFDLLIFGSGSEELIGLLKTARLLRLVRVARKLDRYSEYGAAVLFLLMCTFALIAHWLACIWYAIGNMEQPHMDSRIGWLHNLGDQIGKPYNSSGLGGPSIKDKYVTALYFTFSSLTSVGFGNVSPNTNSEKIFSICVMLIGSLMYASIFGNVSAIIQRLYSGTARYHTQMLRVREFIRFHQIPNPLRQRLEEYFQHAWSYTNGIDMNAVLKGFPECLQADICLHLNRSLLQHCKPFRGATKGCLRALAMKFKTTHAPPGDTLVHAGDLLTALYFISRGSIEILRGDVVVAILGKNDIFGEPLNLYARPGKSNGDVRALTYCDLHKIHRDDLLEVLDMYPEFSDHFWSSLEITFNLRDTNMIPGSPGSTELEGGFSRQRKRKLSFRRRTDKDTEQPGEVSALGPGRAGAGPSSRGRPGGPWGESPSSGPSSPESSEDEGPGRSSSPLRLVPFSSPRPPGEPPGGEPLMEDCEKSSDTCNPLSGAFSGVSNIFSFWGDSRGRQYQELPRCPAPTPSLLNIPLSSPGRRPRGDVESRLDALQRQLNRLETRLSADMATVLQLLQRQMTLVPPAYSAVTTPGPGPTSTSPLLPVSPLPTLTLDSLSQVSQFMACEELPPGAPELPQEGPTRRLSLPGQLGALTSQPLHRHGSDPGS

Sequence of Cytochrome P450 3A4 (P08684 whole entry): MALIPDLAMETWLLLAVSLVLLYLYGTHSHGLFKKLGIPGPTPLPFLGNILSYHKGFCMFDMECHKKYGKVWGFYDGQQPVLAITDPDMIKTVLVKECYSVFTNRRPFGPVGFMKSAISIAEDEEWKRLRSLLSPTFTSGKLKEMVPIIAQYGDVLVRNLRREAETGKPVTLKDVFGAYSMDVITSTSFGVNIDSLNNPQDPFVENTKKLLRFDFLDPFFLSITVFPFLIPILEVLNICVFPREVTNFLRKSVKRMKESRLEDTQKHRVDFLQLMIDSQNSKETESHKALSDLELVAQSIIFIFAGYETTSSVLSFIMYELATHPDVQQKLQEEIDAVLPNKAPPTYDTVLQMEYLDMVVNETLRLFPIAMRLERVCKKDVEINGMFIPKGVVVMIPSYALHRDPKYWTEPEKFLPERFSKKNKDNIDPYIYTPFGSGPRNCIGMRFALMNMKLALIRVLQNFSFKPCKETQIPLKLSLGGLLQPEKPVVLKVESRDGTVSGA
Sequence of Sodium-dependent dopamine transporter (Q01959 whole entry): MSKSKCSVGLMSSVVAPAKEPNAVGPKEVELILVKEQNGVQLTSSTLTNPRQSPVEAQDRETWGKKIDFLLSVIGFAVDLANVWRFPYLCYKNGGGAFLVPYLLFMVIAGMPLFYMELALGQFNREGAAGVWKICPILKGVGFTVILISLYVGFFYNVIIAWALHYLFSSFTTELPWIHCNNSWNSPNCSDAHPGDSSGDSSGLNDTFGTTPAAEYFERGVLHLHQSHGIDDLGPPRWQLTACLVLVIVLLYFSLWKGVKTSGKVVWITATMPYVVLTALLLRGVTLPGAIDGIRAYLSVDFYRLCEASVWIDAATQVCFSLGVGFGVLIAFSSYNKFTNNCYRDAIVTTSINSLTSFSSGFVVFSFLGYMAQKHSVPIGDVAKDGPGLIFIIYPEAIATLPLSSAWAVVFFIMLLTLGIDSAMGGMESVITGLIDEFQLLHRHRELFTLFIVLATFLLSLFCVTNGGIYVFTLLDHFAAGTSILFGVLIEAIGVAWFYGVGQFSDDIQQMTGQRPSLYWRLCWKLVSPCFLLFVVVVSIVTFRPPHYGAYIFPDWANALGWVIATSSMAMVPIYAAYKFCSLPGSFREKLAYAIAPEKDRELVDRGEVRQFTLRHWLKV
Sequence of Sodium-dependent noradrenaline transporter (P23975 whole entry): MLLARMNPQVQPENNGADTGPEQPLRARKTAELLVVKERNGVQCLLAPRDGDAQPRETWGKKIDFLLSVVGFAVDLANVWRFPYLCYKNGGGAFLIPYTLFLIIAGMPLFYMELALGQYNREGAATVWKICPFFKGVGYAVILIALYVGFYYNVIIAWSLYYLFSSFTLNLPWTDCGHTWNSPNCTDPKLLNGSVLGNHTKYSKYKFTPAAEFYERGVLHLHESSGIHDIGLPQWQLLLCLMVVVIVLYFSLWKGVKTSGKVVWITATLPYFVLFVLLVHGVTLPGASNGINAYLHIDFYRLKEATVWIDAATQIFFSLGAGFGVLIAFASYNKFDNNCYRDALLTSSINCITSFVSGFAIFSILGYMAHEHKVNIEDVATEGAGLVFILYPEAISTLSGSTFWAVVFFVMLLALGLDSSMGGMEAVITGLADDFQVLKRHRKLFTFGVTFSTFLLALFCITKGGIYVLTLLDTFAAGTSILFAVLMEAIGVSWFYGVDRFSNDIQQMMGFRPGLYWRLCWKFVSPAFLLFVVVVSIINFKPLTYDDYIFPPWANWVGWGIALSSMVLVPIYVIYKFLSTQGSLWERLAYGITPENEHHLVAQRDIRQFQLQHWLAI
Sequence of Sodium-dependent serotonin transporter (P31645 whole entry): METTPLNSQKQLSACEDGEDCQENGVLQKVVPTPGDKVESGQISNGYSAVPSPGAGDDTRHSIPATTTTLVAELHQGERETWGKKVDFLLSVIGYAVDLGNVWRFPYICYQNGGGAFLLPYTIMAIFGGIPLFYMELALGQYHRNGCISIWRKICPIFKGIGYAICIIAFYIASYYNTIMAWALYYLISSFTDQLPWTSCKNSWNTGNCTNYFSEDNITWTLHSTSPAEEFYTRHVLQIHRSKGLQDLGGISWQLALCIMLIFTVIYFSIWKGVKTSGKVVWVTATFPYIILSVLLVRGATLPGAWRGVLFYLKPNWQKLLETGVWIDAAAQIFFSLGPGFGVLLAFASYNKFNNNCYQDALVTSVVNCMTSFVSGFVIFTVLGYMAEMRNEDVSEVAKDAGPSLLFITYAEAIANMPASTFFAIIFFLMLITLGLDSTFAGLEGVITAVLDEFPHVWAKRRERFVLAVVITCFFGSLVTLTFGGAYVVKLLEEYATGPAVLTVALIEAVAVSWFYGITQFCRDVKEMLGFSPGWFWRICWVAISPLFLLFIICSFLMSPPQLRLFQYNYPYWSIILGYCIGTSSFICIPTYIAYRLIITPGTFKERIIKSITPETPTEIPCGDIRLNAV
Sequence of Cytochrome P450 2D6 (P10635 whole entry): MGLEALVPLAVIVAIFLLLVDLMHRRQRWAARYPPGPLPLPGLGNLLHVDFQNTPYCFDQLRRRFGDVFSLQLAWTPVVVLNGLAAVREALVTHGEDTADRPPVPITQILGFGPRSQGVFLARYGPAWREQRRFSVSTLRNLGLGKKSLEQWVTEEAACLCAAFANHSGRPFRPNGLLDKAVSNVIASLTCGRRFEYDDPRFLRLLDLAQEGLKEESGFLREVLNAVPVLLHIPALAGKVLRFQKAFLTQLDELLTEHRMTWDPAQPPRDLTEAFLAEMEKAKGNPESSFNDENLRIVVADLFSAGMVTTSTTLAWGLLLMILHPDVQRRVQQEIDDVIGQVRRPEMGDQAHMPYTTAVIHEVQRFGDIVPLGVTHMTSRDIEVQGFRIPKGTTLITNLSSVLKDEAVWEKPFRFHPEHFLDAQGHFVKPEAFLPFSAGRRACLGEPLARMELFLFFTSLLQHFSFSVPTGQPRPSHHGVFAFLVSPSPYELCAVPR
Sequence of Cytochrome P450 2C19 (P33261 whole entry): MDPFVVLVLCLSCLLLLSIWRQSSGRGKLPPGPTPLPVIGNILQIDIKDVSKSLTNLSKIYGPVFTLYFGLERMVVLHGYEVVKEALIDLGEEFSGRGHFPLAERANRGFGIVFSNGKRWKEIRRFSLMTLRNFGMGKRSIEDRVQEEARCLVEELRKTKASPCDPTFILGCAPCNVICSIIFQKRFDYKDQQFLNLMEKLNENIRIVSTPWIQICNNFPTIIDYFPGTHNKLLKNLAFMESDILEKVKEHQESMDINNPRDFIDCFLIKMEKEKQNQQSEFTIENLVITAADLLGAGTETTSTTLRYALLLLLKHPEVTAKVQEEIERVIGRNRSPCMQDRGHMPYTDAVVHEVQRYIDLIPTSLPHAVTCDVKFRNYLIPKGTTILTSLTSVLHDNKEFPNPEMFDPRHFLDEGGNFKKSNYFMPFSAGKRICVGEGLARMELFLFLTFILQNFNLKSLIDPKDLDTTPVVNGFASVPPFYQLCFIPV
Sequence of Cytochrome P450 2C9 (P11712 whole entry): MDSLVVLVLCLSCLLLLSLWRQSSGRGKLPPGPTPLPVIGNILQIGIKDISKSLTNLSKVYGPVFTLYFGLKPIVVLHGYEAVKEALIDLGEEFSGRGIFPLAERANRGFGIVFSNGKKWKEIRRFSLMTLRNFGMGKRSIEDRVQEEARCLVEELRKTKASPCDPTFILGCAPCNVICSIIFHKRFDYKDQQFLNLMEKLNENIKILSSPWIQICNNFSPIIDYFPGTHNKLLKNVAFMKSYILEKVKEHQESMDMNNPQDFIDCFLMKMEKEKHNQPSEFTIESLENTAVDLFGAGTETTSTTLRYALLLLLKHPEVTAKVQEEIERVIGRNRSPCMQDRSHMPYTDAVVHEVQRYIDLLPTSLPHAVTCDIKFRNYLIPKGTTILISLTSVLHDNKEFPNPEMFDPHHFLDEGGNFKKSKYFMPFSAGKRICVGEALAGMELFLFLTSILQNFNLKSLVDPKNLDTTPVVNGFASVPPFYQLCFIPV

Compound | IC50 [1] | IC50 [2] | IC50 (Cytochrome P450 2C19) | half-life [3] | IC50 [4] | half-life [5] | IC50 (Cytochrome P450 2C9) | IC50 (Cytochrome P450 3A4) | IC50 (Cytochrome P450 2D6) | IC50 [6] | IC50 [7]
CN(C)[C@@H]1CCN(c2ccc(Cl)c(Cl)c2)c2ccccc21 | 1180 nM | 16 nM | > 25000 nM | 0.005 h | 7 nM | > 5 h | 250 nM | > 25000 nM | 6020 nM | > 25000 nM | –
CN(C)C1CCN(c2ccc(Cl)c(Cl)c2)c2ccccc21 (stereo unspecified) | 7140 nM | 5030 nM | – | – | 3 nM | – | – | – | – | – | –
CNC1Cc2ccccc2N(c2ccc(Cl)c(Cl)c2)C1 (stereo unspecified) | 1010 nM | 177 nM | – | – | 985 nM | – | – | – | – | – | –
CN(C)C1Cc2ccccc2N(c2ccc(Cl)c(Cl)c2)C1 (stereo unspecified) | 1860 nM | 122 nM | – | – | 436 nM | – | – | – | – | – | –
NC1Cc2ccccc2N(c2ccc(Cl)c(Cl)c2)C1 (stereo unspecified) | 2600 nM | 605 nM | – | – | 2550 nM | – | – | – | – | – | –
N[C@H]1Cc2ccccc2N(c2ccc(Cl)c(Cl)c2)C1 | 1850 nM | 465 nM | – | – | 2400 nM | – | – | – | – | – | –
CN(C)[C@H]1Cc2ccccc2N(c2ccc(Cl)c(Cl)c2)C1 | 3090 nM | 309 nM | – | – | 5560 nM | – | – | – | – | – | –
CN[C@H]1Cc2ccccc2[C@@H](c2ccc(Cl)c(Cl)c2)C1 | – | 72 nM | – | – | – | – | – | – | – | – | –
N[C@@H]1CCN(c2ccc(Cl)c(Cl)c2)c2ccccc21 | 138 nM | 12 nM | > 25000 nM | 3.35 h | 116 nM | > 5 h | > 25000 nM | > 25000 nM | 4870 nM | > 25000 nM | 3500 nM
CN[C@H]1Cc2ccccc2N(c2ccc(Cl)c(Cl)c2)C1 | 1250 nM | 100 nM | – | 0.333 h | 128 nM | 3.95 h | – | – | 100 nM | – | –
CNC1CCN(c2ccc(Cl)c(Cl)c2)c2ccccc21 (stereo unspecified) | 934 nM | 39 nM | 14100 nM | 0.367 h | 20 nM | 3.32 h | > 25000 nM | > 25000 nM | 3000 nM | > 25000 nM | 7800 nM
NC1CCN(c2ccc(Cl)c(Cl)c2)c2ccccc21 (stereo unspecified) | 926 nM | 246 nM | – | – | 650 nM | – | – | – | – | – | –
CN[C@@H]1CCN(c2ccc(Cl)c(Cl)c2)c2ccccc21 | 601 nM | 8 nM | 19000 nM | > 5 h | 132 nM | > 5 h | > 25000 nM | > 25000 nM | 1500 nM | > 25000 nM | 3250 nM
